From patent EP4610269A1, “UROKINASE PLASMINOGEN ACTIVATOR SURFACE RECEPTOR (UPAR) LIGANDS FOR DIAGNOSTIC OR THERAPEUTIC USE” (3B Pharmaceuticals GmbH, priority 2024, dated 2025)
Where a SMILES comes first, the peptide text is derived from it. Bridges are numbered along the chain shown (N, C = ends). [ ]: non-standard residue; d: D form. The star is where a group is joined. GdDOTA = Gd(III) DOTA conjugate, O=C([O-])CN1CCN(CC(=O)[O-])CCN(CC(=O)*)CCN(CC(=O)[O-])CC1.[Gd+3]; DOTA(In) = O=C1CN2CCN3CCN(CC(=O)*)CCN(CC2)CC(=O)[O][In]([O]1)[O]C(=O)C3; DOTA(Lu) = O=C1CN2CCN3CCN(CC(=O)*)CCN(CC2)CC(=O)[O][Lu]([O]1)[O]C(=O)C3; CH3O(CH2CH2O)11CH2CH2CO = COCCOCCOCCOCCOCCOCCOCCOCCOCCOCCOCCOCCC(=O)*; nBuCAyl = n-butyl-carbamoyl (N-terminal blocking group), CCCCNC(=O)*; Pro(trans-4-F) = O=C(O)[C@@H]1C[C@@H](F)CN1; Lys(Me3) = C[N+](C)(C)CCCC[C@H](N)C(=O)O; Hyp = O=C(O)[C@@H]1C[C@@H](O)CN1; hArg = N=C(N)NCCCC[C@H](N)C(=O)O; hPhe = N[C@@H](CCc1ccccc1)C(=O)O; LaDOTA = La(III) DOTA conjugate; Cit = NC(=O)NCCC[C@H](N)C(=O)O; NMeL = CN[C@@H](CC(C)C)C(=O)O; αMeL = CC(C)C[C@](C)(N)C(=O)O; Orn = NCCC[C@H](N)C(=O)O; dNMeA = CN[C@H](C)C(=O)O; Nva = CCC[C@H](N)C(=O)O; Pentanoyl = CCCCC(=O)*; Aib = CC(C)(N)C(=O)O

Columns and labels:
[1] = molecular target: T1, uPAR-expressing HEC-265 human endometrial adenocarcinoma cells (Homo sapiens, UniProt Q03405); assay: Competitive FACS binding assay; settings: pIC50 category of FACS binding
T1 construct: Cell surface uPAR-expressing HEC-265 human endometrial adenocarcinoma cells; host or cells: HEC-265
T1 sequence (Q03405 23-335): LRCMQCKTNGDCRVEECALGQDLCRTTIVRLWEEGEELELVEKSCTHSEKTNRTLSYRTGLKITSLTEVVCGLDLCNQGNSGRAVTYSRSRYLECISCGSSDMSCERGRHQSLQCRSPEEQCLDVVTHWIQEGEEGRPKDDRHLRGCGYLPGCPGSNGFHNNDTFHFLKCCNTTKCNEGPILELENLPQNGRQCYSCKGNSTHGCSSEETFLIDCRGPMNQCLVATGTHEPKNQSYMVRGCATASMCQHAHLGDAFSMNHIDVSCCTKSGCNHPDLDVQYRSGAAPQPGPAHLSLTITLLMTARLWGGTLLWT
How it was run: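 HEC-265 cells incubated 1 h at 4 °C with 10 nM biotinylated uPAR peptide tracer plus increasing test compound, then stained with APC-streptavidin on ice. Median APC fluorescence by flow cytometry; 4PL fit gives pIC50.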

[2] = molecular target: T2, human uPAR (uPAR-Fc) (Homo sapiens, UniProt Q03405); assay: Surface plasmon resonance (SPR) assay, single cycle kinetics; format: binding; settings: pKD category for uPAR SPR activity assay, uPAR-Fc on Protein A-Chip, 25°C; for Kd: read-out: pKD CAT (converted)
T2 construct: comprising amino acids Leu23-Arg303 according to UniProt entry Q03405.1; purchased R&D Systems 10378-UK-100
T2 sequence (Q03405 23-303): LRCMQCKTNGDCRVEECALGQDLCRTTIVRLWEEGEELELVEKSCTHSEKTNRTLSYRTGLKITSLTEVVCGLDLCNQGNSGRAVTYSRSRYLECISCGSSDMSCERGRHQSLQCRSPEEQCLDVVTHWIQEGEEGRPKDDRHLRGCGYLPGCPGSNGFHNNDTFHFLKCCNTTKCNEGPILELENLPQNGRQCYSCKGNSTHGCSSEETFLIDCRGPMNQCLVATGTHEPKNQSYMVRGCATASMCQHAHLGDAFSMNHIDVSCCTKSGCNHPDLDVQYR
How it was run: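 uPAR-Fc (Leu23-Arg303 extracellular domains, human IgG1 Fc) captured on Protein A chip to ~2000 RU; single-cycle kinetics at 25°C in HEPES running buffer pH 7.4 with 0.1% DMSO. KD from double-referenced sensorgrams fitted to 1:1 Langmuir model, reported as pKD.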

Row | Compound | IC50 [1] | Kd ([2]; single cycle kinetics) | pIC50 CAT [1] | pKD CAT [2] | pKD CAT ([2]; single cycle kinetics)
1 | CCC[C@@H]1NC(=O)[C@H]([C@@H](C)CC)NC(=O)[C@@H]2C[C@@H](O)CN2C(=O)[C@@H]2CCCN2C(=O)[C@H](Cc2ccccc2)NC(=O)[C@H](Cc2ccc(O)cc2)NC(=O)[C@H](CCC(N)=O)NC(=O)[C@H](CCCNC(=N)N)NC(=O)[C@@H](NC(=O)[C@H](CC(C)C)N(C)C(C)=O)CSSC[C@@H](C(N)=O)NC1=O [UPAR-483, Ac-Nml-[Cys-Arg-Gln-Tyr-Phe-Pro-Hyp-Ile-Nva-Cys]-NH2] (Ac-[NMeL]CRQYFP[Hyp]I[Nva]C-NH2; disulfide 2-11) | ≤ 10 nM | < 1.58 nM |  |  | 
2 | CCC[C@@H]1NC(=O)[C@H]([C@@H](C)CC)NC(=O)[C@@H]2C[C@@H](O)CN2C(=O)[C@@H]2CCCN2C(=O)[C@H](Cc2ccccc2)NC(=O)[C@H](Cc2ccc(O)cc2)NC(=O)[C@H](CCC(N)=O)NC(=O)[C@H](CCCNC(=N)N)NC(=O)[C@@H](NC(=O)[C@H](CCc2ccccc2)NC(C)=O)CSSC[C@@H](C(N)=O)NC1=O [UPAR-484, Ac-Hfe-[Cys-Arg-Gln-Tyr-Phe-Pro-Hyp-Ile-Nva-Cys]-NH2] (Ac-[hPhe]CRQYFP[Hyp]I[Nva]C-NH2; disulfide 2-11) | ≤ 10 nM | 1.58 to 10 nM |  |  | 
3 | CCC[C@@H]1NC(=O)[C@H]([C@@H](C)CC)NC(=O)[C@@H]2C[C@@H](O)CN2C(=O)[C@@H]2CCCN2C(=O)[C@H](Cc2ccccc2)NC(=O)[C@H](Cc2ccc(O)cc2)NC(=O)[C@H](CCC(N)=O)NC(=O)[C@H](CCCNC(=N)N)NC(=O)[C@@H](NC(=O)[C@](C)(CC(C)C)NC(C)=O)CSSC[C@@H](C(N)=O)NC1=O [UPAR-485, Ac-Aml-[Cys-Arg-Gln-Tyr-Phe-Pro-Hyp-Ile-Nva-Cys]-NH2] (Ac-[αMeL]CRQYFP[Hyp]I[Nva]C-NH2; disulfide 2-11) | ≤ 10 nM | < 1.58 nM |  |  | 
4 | Butoc-[Cys-Cit-Lys(LuDOTA)-Tyr-Pcf-4Cfp-Hyp-Chg-Nva-Cys]-NH2 [UPAR-169] |  |  | A (pIC50 values ≥8.0) | A (pKD values ≥ 8.8) | 
5 | Butoc-[Cys-Cit-Lys(LuDOTA)-Tyr-Pcf-4Cfp-Hyp-Ile-Nva-Cys]-NH2 [UPAR-369] |  |  | A (pIC50 values ≥8.0) |  | A (pKD values ≥ 8.8)
6 | Pent-[Cys-Asn-Lys(LuDOTA)-Tyr-Phe-Pro-Hyp-Ile-Nva-Cys]-NH2 (Pentanoyl-CNK(DOTA(Lu))YFP[Hyp]I[Nva]C-NH2; disulfide 1-10; not fully specified; also: Lu(III) complexed by DOTA) [UPAR-335] |  |  | A (pIC50 values ≥8.0) | A (pKD values ≥ 8.8) | 
7 | Pent-[Cys-Cit-Lys(GdDOTA)-Mpa-Phe-Pro-Hyp-Ile-Nva-Cys]-NH2 [UPAR-251] |  |  | A (pIC50 values ≥8.0) | A (pKD values ≥ 8.8) | 
8 | Pent-[Cys-Cit-Lys(GdDOTA)-Tyr-Phe-Pro-4Tfp-Ile-Nva-Cys]-NH2 (Pentanoyl-C[Cit]K(GdDOTA)YFP[Pro(trans-4-F)]I[Nva]C-NH2; disulfide 1-10; not fully specified; also: Gd(III) complexed by DOTA) [UPAR-435] |  |  | A (pIC50 values ≥8.0) |  | A (pKD values ≥ 8.8)
9 | Pent-[Cys-Cit-Lys(InDOTA)-Tyr-Mpa-Pro-Hyp-Ile-Nva-Cys]-NH2 [UPAR-331] |  |  | A (pIC50 values ≥8.0) | A (pKD values ≥ 8.8) | 
10 | Pent-[Cys-Cit-Lys(InDOTA)-Tyr-Pcf-Pro-Hyp-Ile-Nva-Cys]-NH2 [UPAR-355] |  |  | A (pIC50 values ≥8.0) |  | A (pKD values ≥ 8.8)
11 | Pent-[Cys-Cit-Lys(InDOTA)-Tyr-Phe-Pro-Hyp-Ile-Nva-Cys]-NH2 (Pentanoyl-C[Cit]K(DOTA(In))YFP[Hyp]I[Nva]C-NH2; disulfide 1-10; not fully specified; also: In(III) complexed by DOTA) [UPAR-182] |  |  | A (pIC50 values ≥8.0) | A (pKD values ≥ 8.8) | 
12 | Pent-[Cys-Cit-Lys(InDOTA-PEG12)-Tyr-Phe-Pro-Hyp-Ile-Nva-Cys]-NH2 (Pentanoyl-C[Cit]KYFP[Hyp]I[Nva]C-NH2; disulfide 1-10; not fully specified (residue 3); printed as Pent-[Cys-Cit-Lys(InDOTA-PEG12)-Tyr-Phe-Pro-Hyp-Ile-Nva-Cys]-NH2; also: In(III) complexed by DOTA) [UPAR-404] |  |  | A (pIC50 values ≥8.0) |  | A (pKD values ≥ 8.8)
13 | Pent-[Cys-Cit-Lys(LaDOTA)-Ppa-Phe-Pro-Hyp-Ile-Nva-Cys]-NH2 [UPAR-296] |  |  | A (pIC50 values ≥8.0) | A (pKD values ≥ 8.8) | 
14 | Pent-[Cys-Cit-Lys(LaDOTA)-Tyr-Phe-Pro-Aib-Ile-Nva-Cys]-NH2 (Pentanoyl-C[Cit]K(LaDOTA)YFP[Aib]I[Nva]C-NH2; disulfide 1-10; not fully specified; also: La(III) complexed by DOTA) [UPAR-279] |  |  | A (pIC50 values ≥8.0) | A (pKD values ≥ 8.8) | 
15 | Pent-[Cys-Cit-Lys(LaDOTA)-Tyr-Thi-Pro-Hyp-Ile-Nva-Cys]-NH2 [UPAR-166] |  |  | A (pIC50 values ≥8.0) | A (pKD values ≥ 8.8) | 
16 | Pent-[Cys-Cit-Lys(LuDOTA)-Guf-Phe-Pro-Hyp-Ile-Nva-Cys]-NH2 [UPAR-350] |  |  | A (pIC50 values ≥8.0) |  | A (pKD values ≥ 8.8)
17 | Pent-[Cys-Cit-Lys(LuDOTA)-Nif-Phe-Pro-Hyp-Ile-Nva-Cys]-NH2 [UPAR-352] |  |  | A (pIC50 values ≥8.0) |  | A (pKD values ≥ 8.8)
18 | Pent-[Cys-Cit-Lys(LuDOTA)-Tyr-Egm-Pro-Hyp-Ile-Nva-Cys]-NH2 [UPAR-254] |  |  | A (pIC50 values ≥8.0) | A (pKD values ≥ 8.8) | 
19 | Pent-[Cys-Cit-Lys(LuDOTA)-Tyr-Phe-Pro-nma-Ile-Nva-Cys]-NH2 (Pentanoyl-C[Cit]K(DOTA(Lu))YFP[dNMeA]I[Nva]C-NH2; disulfide 1-10; not fully specified; also: Lu(III) complexed by DOTA) [UPAR-151] |  |  | A (pIC50 values ≥8.0) | A (pKD values ≥ 8.8) | 
20 | Pent-[Cys-Har-Lys(GdDOTA)-Tyr-Phe-Pro-Hyp-Ile-Nva-Cys]-NH2 (Pentanoyl-C[hArg]K(GdDOTA)YFP[Hyp]I[Nva]C-NH2; disulfide 1-10; not fully specified; also: Gd(III) complexed by DOTA) [UPAR-376] |  |  | A (pIC50 values ≥8.0) |  | A (pKD values ≥ 8.8)
21 | Pent-[Cys-KMe3-Lys(LaDOTA)-Tyr-Phe-Pro-Hyp-Ile-Nva-Cys]-NH2 (Pentanoyl-C[Lys(Me3)]K(LaDOTA)YFP[Hyp]I[Nva]C-NH2; disulfide 1-10; not fully specified; also: La(III) complexed by DOTA) [UPAR-183] |  |  | A (pIC50 values ≥8.0) | A (pKD values ≥ 8.8) | 
22 | Pent-[Cys-Orn(mPEG12)-Lys(InDOTA)-Tyr-Phe-Pro-Hyp-Ile-Nva-Cys]-NH2 (Pentanoyl-C[Orn](CH3O(CH2CH2O)11CH2CH2CO)K(DOTA(In))YFP[Hyp]I[Nva]C-NH2; disulfide 1-10; not fully specified; also: In(III) complexed by DOTA) [UPAR-311] |  |  | A (pIC50 values ≥8.0) | A (pKD values ≥ 8.8) | 
23 | Succinyl-Nva-[Cys-Cit-Lys(GdDOTA)-Tyr-Phe-Pro-Hyp-Ile-Nva-Cys]-NH2 [UPAR-460] |  |  | A (pIC50 values ≥8.0) |  | A (pKD values ≥ 8.8)
24 | nBuCAyl-[Cys-Cit-Lys(LuDOTA)-Tyr-Phe-Pro-Hyp-Ile-Nva-Cys]-NH2 (nBuCAyl-C[Cit]K(DOTA(Lu))YFP[Hyp]I[Nva]C-NH2; disulfide 1-10; also: Lu(III) chelated by DOTA on Lys3) [UPAR-464] |  |  | A (pIC50 values ≥8.0) |  | A (pKD values ≥ 8.8)
